The source of these data is US20080311126A1, “Antisense Oligonucleotides Directed to Ribonucleotide Reducatase R2 and Uses Thereof in Combination Therapies for the Treatment of Cancer” (Genesense Technologies, Inc, priority 2004, published 2008).

In assay [1] the test system is renal cell carcinoma. The settings on record: patients with renal cell carcinoma; cited from earlier work.
For assay [2], the system named is MDA-CDDP-S4 human Cisplatin-resistant breast adenocarcinoma cells. In words: MDA-CDDP-S4 Cisplatin-resistant breast adenocarcinoma, fat pad injection in SCID mice. Type of assay: in vivo. As to conditions: for Tumour weight as % of saline control: MDA-CDDP-S4 (breast), Cisplatin resistance, SCID. On the procedure:
MDA-CDDP-S4 human in vivo-selected Cisplatin-resistant breast adenocarcinoma cells (4×10^6 cells in 100 μl of PBS) were injected into the fat pad (inside of right leg) of 6-7 weeks old female SCID mice. After the size of tumour reached an approximate volume of 100 mm^3, 7 days post tumour cell injection, SEQ ID NO:1 was administered by bolus infusion into the tail vein every other day at 10 mg/kg 9 times. Control animals received saline alone for the same period. Antitumour effect of SEQ ID NO: 1 was further compared to that of Cisplatin or Taxol alone. Cisplatin was adminstered intravenously once a week for three weeks at a dose of 4 mg/kg. Taxol was administered intravenously once a week for three weeks at a dose of 10 mg/kg. Antitumour activities were estimated by the inhibition of tumour volume, which was measured with caliper. Each point represents mean tumour volume calculated from 10 animals per experimental group. […] As expected, treatment with Cisplatin during the same period was ineffective against Cisplatin-resistant tumour.
MDA-CDDP-S4 human in vivo-selected Cisplatin-resistant breast adenocarcinoma cells (4×10^6 cells in 100 μl of PBS) were injected into the fat pad (inside of right leg) of 6-7 weeks old female CB-17 SCID mice. After the size of tumour reached an approximate volume of 100 mm^3, 9 days post tumour cell injection, SEQ ID NO:1 was administered by bolus infusion into the tail vein every other day at 10 mg/kg. Control animals received saline alone for the same period. Antitumour effect of SEQ ID NO:1 was further compared to that of Taxol alone and in combination. Taxol was administered i.p. once a week at a dose of 10 mg/kg. Antitumour activities were estimated by the inhibition of tumour volume FIG. 22A), which was measured with calipers. Each point represents mean tumour volume calculated from 10 animals per experimental group. Animals were sacrificed and tumour weights taken at the end of the study (FIG. 22C). […] This study was repeated with similar results (FIG. 22B).

In assay [3] the test system is SK-OV-3 human ovary adenocarcinoma cells. Put plainly: SK-OV-3 ovary tumour xenograft in CD-1 nude mice. Type of assay: in vivo. The settings on record: SK-OV-3 (ovary); Mouse CD-1. How it is done: SK-OV-3 human ovary adenocarcinoma cells (1×10^7 cells in 100 μl of PBS) were subcutaneously injected into the right flank of 6-7 weeks old female CD-1 nude mice. After the size of tumour reached an approximate volume of 100 mm^3, 6 days post tumour cell injection, SEQ ID NO:1 was administered by bolus infusion into the tail vein every other day at 10 mg/kg 17 times. Control animals received saline alone for the same period. Antitumour effect of SEQ ID NO: 1 was further compared to that of taxol or cisplatin alone or in combination. Taxol was administered intravenously once a week for first three weeks and intraperitoneally once a week for next two weeks at a dose of 10 mg/kg. Cisplatin was administered intravenously once a week for first three weeks and intraperitoneally once a week for next two weeks at a dose of 4 mg/kg. All treatments were stopped at day 40. Antitumour activities were estimated by the inhibition of tumour volume, which was measured with caliper. Each point represents mean tumour volume calculated from 9 animals per experimental group.

For assay [4], the system named is MDA-MB435-To.1 human Taxol-resistant breast adenocarcinoma cells. Put plainly: MDA-MB435-To.1 Taxol-resistant breast adenocarcinoma, fat pad injection in SCID mice. Type of assay: in vivo. Further details: Tumour weight as % of saline control: concentration or dose not given beside the values. The settings on record: for Tumour weight as % of saline control: MDA-MB435-To.1 (breast), Taxol resistance. On the procedure:
MDA-MB435-To.1 human Taxol-resistant breast adenocarcinoma cells (4×10^6 cells in […] of PBS) were injected into the fat pad (inside of right leg) of 6-7 weeks old female SCID mice. After the size of tumour reached an approximate volume of 100 mm^3, 20 days post tumour cell injection, SEQ ID NO:1 was administered by bolus infusion into the tail vein every other day at 10 mg/kg 15 times. Control animals received saline alone for the same period. Antitumour effect of SEQ ID NO:1 was further compared to that of Cisplatin or Taxol alone. Cisplatin was administered intravenously once a week for four weeks at a dose of 4 mg/kg. Taxol was administered intravenously once a week for four weeks at a dose of 20 mg/kg.
Antitumour activities were estimated by the inhibition of tumour volume, which was measured with caliper. Bach point represents mean tumour volume calculated from 9-10 animals per experimental group. […] As expected, treatment with Taxol during the same period was ineffective against Taxol-resistant tumour.
MDA-MB435-To.1 human Taxol-resistant breast adenocarcinoma cells (4×10^6 cells in 100 μl of PBS) were injected into the fat pad (inside of right leg) of 6-7 weeks old female CB-17 SCID mice. After the size of tumour reached an approximate volume of 100 mm^3, 17 days post tumour cell injection, SEQ ID NO:1 was administered by bolus infusion into the tail vein every other day at 10 mg/kg. Control animals received saline alone for the same period. Antitumour effect of SEQ ID NO:1 was compared to that of Cisplatin alone and in combination. Cisplatin was administered intravenously once a week for four weeks at a dose of 4 mg/kg. Antitumour activities were estimated by the inhibition of tumour volume, which was measured with caliper. Each point represents mean tumour volume calculated from 10 animals per experimental group. At the end of the study the animals were sacrificed and tumours weighed.

In assay [5] the test system is Hela S3 human cervix epitheloid carcinoma cells. In words: Hela S3 hydroxyurea resistant cervix carcinoma xenograft in SCID mice. Type of assay: in vivo. As to conditions: Hela S3 (cervix), hydroxyurea resistance; SCID. How it is done:
Hela S3 human cervix epitheloid carcinoma cells (5×10^5 cells in 100 μl of PBS) were subcutaneously injected into the right flank of 6-7 weeks old female SCID mice. Hela S3 is a hydroxyurea resistant cell line. After the size of tumour reached an approximate volume of 100 mm^3, 3 days post tumour cell injection, SEQ ID NO:1 was administered by bolus infusion into the tail vein every other day at 10 mg/kg 6 times. Control animals received saline alone for the same period. Antitumour effect of SEQ ID NO:1 was further compared to that of Hydroxyurea or Cisplatin alone or in combination. Hydroxyurea was administered intraperitoneally every day at a dose of 250 mg/kg for 10 days. Cisplatin was administered intravenously once a week for three weeks at a dose of 4 mg/kg. Antitumour activities were estimated by the inhibition of tumour volume, which was measured with caliper. Each point represents mean tumour volume calculated from 10 animals per experimental group. […] As expected, treatment with Hydroxyurea during the same period was ineffective against Hydroxyurea-resistant tumour.

Assay [6] relates to Human taxol-resistant promyelocytic leukaemia cells (HL-60). In words: HL-60 taxol-resistant promyelocytic leukaemia xenograft in SCID mice. Type of assay: in vivo. On the procedure: Human taxol-resistant promyelocytic leukaemia cells (HL-60) (7×10^6 cells in 100 μl of PBS) were injected into the right flank of 6-7 weeks old female SCID mice. After the size of tumour reached an approximate volume of 100 mm^3, 10 days post tumour cell injection, SEQ ID NO:1 was administered by bolus infusion into the tail vein every other day at 10 mg/kg. Control animals received saline alone for the same period. The anti-tumour effect of SEQ ID NO:1 was further compared to that of taxol. Taxol was administered i.p. once a week at a dose of 10 mg/kg. Anti-tumour activity was estimated by the inhibition of tumour volume, which was measured with caliper. Each point represents mean tumour volume calculated from 10 animals per experimental group. In addition animals were sacrificed and tumour weights taken at the end of the study.

The subject of assay [7] is MDA-MB-231 human breast cancer cells. Put plainly: MDA-MB-231 breast tumour xenograft in CD-1 nude mice. As to conditions: MDA-MB-231 (breast); Mouse CD-1. Type of assay: in vivo. On the procedure:
MDA-MB-231 human breast cancer cells (1×10^7 cells in 100 μl of PBS) were subcutaneously injected into the right flank of 6-7 weeks old female CD-1 nude mice. After the size of tumour reached an approximate volume of 100 mm^3, 5 days post tumour cell injection, SEQ ID NO:1, or the scrambled control oligonucleotide (SEQ ID NO:3) were administered by bolus infusion into the tail vein every other day at 10 mg/kg. Control animals received saline alone for the same period. Antitumour effect of SEQ ID NO:1 was further compared to that of taxol or doxorubicin alone or in combination. Taxol was administered intravenously once a week at a dose of 10 mg/kg for three (FIG. 17A) or four weeks (FIG. 17C). Doxorubicin was administered intravenously once a week at a dose of 5 mg/kg for first three weeks (FIG. 17A) or for two weeks (FIG. 17C). All treatments were stopped at day 33 (FIG. 17A) or at day 26 (FIG. 17C), respectively. A day after the last treatment, tumours were excised from the animals and their weights were measured. […] In FIG. 17C, antitumour activities were estimated by the inhibition of tumour volume, which was measured with calipers. Each point represents mean tumour volume calculated from 10 animals per experimental group.

The test system of assay [8] is BxPC-3 human pancreatic carcinoma cells. In words: BxPC-3 gemcitabine resistant pancreatic carcinoma xenograft in CD-1 nude mice. Type of assay: in vivo. How it is done: BxPC-3 human pancreatic carcinoma cells (3×10^6 cells in 100 μl of PBS) were subcutaneously injected into the right flank of 6-7 weeks old female CD-1 nude mice. BxPC-3 is a gemcitabine resistant call line. After the size of tumour reached an approximate volume of 100 mm^3, 21 days post tumour cell injection, SEQ ID NO:1 was administered by bolus infusion into the tail vein every other day at 10 mg/kg 17 times. Control animals received saline alone for the same period. Antitumour effect of SEQ ID NO:1 was further compared to that of Gemcitabine. Gemcitabine was administered intravenously every three days at a dose of 100 mg/kg. Antitumour activities were estimated by the inhibition of tumour volume, which was measured with caliper. Each point represents mean tumour volume calculated from 10 animals per experimental group. […] As expected, treatment with Gemcitabine during the same period was ineffective against Gemcitabine-resistant tumour (FIGS. 19A & B).

The mark [9] stands for this setting: study with Taxol and Cisplatin alone.

In the case of `CC(=O)O[C@]1(C(C)=O)CC[C@H]2[C@@H]3C[C@H](C)C4=CC(=O)CC[C@]4(C)[C@H]3CC[C@@]21C` [MPA, medroxyprogesterone acetate, reference compound], the 1-year survival in assay [1] is reported as 31%.

On to `N.N.[Cl][Pt][Cl]` [Cisplatin, reference compound], for which, in assay [2] (Example 13.3, SEQ ID NO:1 10 mg/kg 9 times, Cisplatin 4 mg/kg, Taxol 10 mg/kg i.v. weekly for three weeks), the “antitumour effect (tumour volume)” value is on record as “ineffective”. The “Tumour weight as % of saline control” value in assay [2] (setting [9]) is 78%; in assay [4] (CB-17/SCID) it was 56%; in assay [4] (SCID) it was 69%; in assay [5], 63%. Further, the “tumour volume data as percentage of saline control” value in assay [3] was 67%.

Turning to `CC(=O)O[C@H]1C(=O)[C@@]2(C)[C@H]([C@H](OC(=O)c3ccccc3)[C@]3(O)C[C@H](OC(=O)[C@H](O)[C@@H](NC(=O)c4ccccc4)c4ccccc4)C(C)=C1C3(C)C)[C@]1(OC(C)=O)CO[C@@H]1C[C@@H]2O` [Taxol, Paclitaxel, reference compound], the “Tumour weight as % of saline control” value in assay [6] (HL-60 (leukemia), Taxol resistance, SCID) was 119%; in assay [2] (Taxol combination study, first of two value columns) it was 26%; in assay [2] (Taxol combination study, second of two value columns), 61%; in assay [2] (setting [9]) it was 32%; in assay [7] it was 58%; in assay [4] (SCID), 109%. Besides, the “anti-tumour effect (tumour volume, tumour weight)” value in assay [6] (SEQ ID NO:1 10 mg/kg every other day, Taxol 10 mg/kg i.p. weekly) was “no effect on tumour growth or weight”. The “tumour volume data as percentage of saline control” value in assay [3] is reported as 49%. Moreover, the “antitumour effect (tumour volume)” value in assay [4] (Example 13.5, SEQ ID NO:1 10 mg/kg 15 times, Cisplatin 4 mg/kg, Taxol 20 mg/kg i.v. weekly for four weeks) is listed as “ineffective”.

Regarding `Nc1ccn([C@@H]2O[C@H](CO)[C@@H](O)C2(F)F)c(=O)n1` [Gemcitabine, reference compound], in assay [8] (BxPC-3 (pancreatic), Gemcitabine resistance, CD-1), the “Tumour weight as % of saline control” value is on record as 83%. Moreover, in assay [8] (SEQ ID NO:1 10 mg/kg 17 times i.v., Gemcitabine 100 mg/kg i.v. every three days), the “antitumour effect (tumour volume)” value is “ineffective”.
